From patent publication US20190275012A9, “SUBSTITUTED THIAZOLO-PYRIDINE COMPOUNDS AS MALT1 INHIBITORS” (Lupin Limited, priority 2016, published 2019)
pIC50: −log10 of the molar value.

Test system: NF-kB transcriptional activity in HEK-293-NF-kB-Luc cell line overexpressing MALT1
Test: NF-kB reporter assay (luciferase, MALT1 stably overexpressed)
Assay type: cell-based
Conditions: Homo sapiens, 24 h, HEK-293-NF-kB-Luc cells stably overexpressing MALT1, 24 h treatment, Bright Glo luminescence; read-out: NF-kB inhibition IC50
Experimental: The NF-⇐B reporter assay was performed to screen for MALT1 inhibition mediated reduction in the NF-⇐B transcriptional activity. For this purpose, MALT1 was stably overexpressed in HEK-293—NF-⇐B-Luc cell line. Cells were seeded in poly-D-lysine coated 96-well plates in a culture medium containing the selection markers (DMEM+10% FBS+50 |g/ml Hygromycin+500 |g/ml Geniticin) and allowed to adhere overnight. On the following day, cells were treated with various concentrations of test compounds for 24 h. After 24 h of treatment with test compounds, media was removed from each well and Bright Glo™ (Promega, USA) substrate was added and incubated for further 10 min at ambient temperature. Luminescence was measured for detection of NF-⇐B reporter activity. RLUs (Relative Luminescence Units) were directly proportional to the NF-⇐B activity. % inhibition of NF-⇐B activity was calculated relative to the samples containing media with 0.1% DMSO alone as per the following formula

`COC(C)c1c(NC(=O)Nc2cnc(-n3ccnn3)c(Cl)c2)cnc2sc(C)nc12` (single isomer, unassigned) [Compound 123b, 1-(5-Chloro-6-(1H-1,2,3-triazol-1-yl)pyridin-3-yl)-3-(7-(1-methoxyethyl)-2-methylthiazolo[5,4-b]pyridin-6-yl)urea] was tested. Which pIC50 did it give?
The pIC50 was 7.00 to 9.00.

`COc1ncc(NC(=O)Nc2cnc3sc(C)nc3c2C2=CCOCC2)cc1Cl` [Compound 58, 1-(5-Chloro-6-methoxypyridin-3-yl)-3-(7-(3,6-dihydro-2H-pyran-4-yl)-2-methylthiazolo[5,4-b]pyridin-6-yl)urea] was tested. Which pIC50 did it give?
Its pIC50 is 5.82 to 6.30.

`Cc1nc2c(C3CCCO3)c(NC(=O)Nc3ccc(-n4nccn4)c(Cl)c3)cnc2s1` (single isomer, unassigned) [Compound 137a, 1-(3-Chloro-4-(2H-1,2,3-triazol-2-yl)phenyl)-3-(2-methyl-7-(tetrahydrofuran-2-yl)thiazolo[5,4-b]pyridin-6-yl)urea] was tested. Which pIC50 did it give?
Its pIC50 is 7.00 to 9.00.

`COCC1(c2c(NC(=O)Nc3ccc(-n4nccn4)c(Cl)c3)cnc3sc(C)nc23)CC1` [Compound 64, 1-(3-Chloro-4-(2H-1,2,3-triazol-2-yl)phenyl)-3-(7-(1-(methoxymethyl)cyclopropyl)-2-methylthiazolo[5,4-b]pyridin-6-yl)urea] was tested. Which pIC50 did it give?
The pIC50 was 6.30 to 7.00.

With `COc1nc(-n2ccnn2)c(Cl)cc1NC(=O)Nc1cnc2sc(C)nc2c1C(C)OC` (single isomer, unassigned) [Compound 91a, 1-(5-Chloro-2-methoxy-6-(1H-1,2,3-triazol-1-yl)pyridin-3-yl)-3-(7-(1-methoxyethyl)-2-methylthiazolo[5,4-b]pyridin-6-yl)urea] as the compound, how does the pIC50 read?
Its pIC50 is 7.00 to 9.00.

How did the pIC50 turn out when `COc1ncc(NC(=O)Nc2cnc3sc(C)nc3c2C2CC2)cc1Br` [Compound 175, 1-(5-Bromo-6-methoxypyridin-3-yl)-3-(7-cyclopropyl-2-methylthiazolo[5,4-b]pyridin-6-yl)urea] was run?
Its pIC50 is 5.82 to 6.30.

With `COC(C)c1c(NC(=O)Nc2cnc(OC(F)F)c(Cl)c2)cnc2sc(C)nc12` (single isomer, unassigned) [Compound 149a, 1-(5-Chloro-6-(difluoromethoxy)pyridin-3-yl)-3-(7-(1-methoxyethyl)-2-methylthiazolo[5,4-b]pyridin-6-yl)urea] as the compound, how does the pIC50 read?
The pIC50 was 7.00 to 9.00.

`COC(C)c1c(NC(=O)Nc2ccc(-n3nccn3)c(C(F)F)c2)cnc2sc(C)nc12` (single isomer, unassigned) [Compound 207a, (R) or (S)-1-(3-(Difluoromethyl)-4-(2H-1,2,3-triazol-2-yl)phenyl)-3-(7-(1-methoxyethyl)-2-methylthiazolo[5,4-b]pyridin-6-yl)urea] was tested. Which pIC50 did it give?
The pIC50 was 7.00 to 9.00.

How did the pIC50 turn out when `COc1nc(-n2nccn2)c(Cl)cc1NC(=O)Nc1cnc2sc(C)nc2c1C(C)C` [Compound 184, 1-(5-Chloro-2-methoxy-6-(2H-1,2,3-triazol-2-yl)pyridin-3-yl)-3-(7-isopropyl-2-methylthiazolo[5,4-b]pyridin-6-yl)urea] was run?
The pIC50 was 7.00 to 9.00.

How did the pIC50 turn out when `Cc1nc2c(C3CCCCO3)c(NC(=O)Nc3cnc(-n4nccn4)c(Cl)c3)cnc2s1` (single isomer, unassigned) [Compound 140b, 1-(5-Chloro-6-(2H-1,2,3-triazol-2-yl)pyridin-3-yl)-3-(2-methyl-7-(tetra hydro-2H-pyran-2-yl)thiazolo[5,4-b]pyridin-6-yl)urea] was run?
Its pIC50 is 6.30 to 7.00.

`COc1ncc(NC(=O)Nc2cnc3sc(C)nc3c2C2CCCO2)cc1Cl` (single isomer, unassigned) [Compound 135a, 1-(5-Chloro-6-methoxypyridin-3-yl)-3-(2-methyl-7-(tetrahydrofuran-2-yl)thiazolo[5,4-b]pyridin-6-yl)urea] was tested. Which pIC50 did it give?
Its pIC50 is 7.00 to 9.00.

With `COc1nc(-n2nccn2)c(Cl)cc1NC(=O)Nc1cnc2sc(C)nc2c1C1(C)CC1` [Compound 178, 1-(5-Chloro-2-methoxy-6-(2H-1,2,3-triazol-2-yl)pyridin-3-yl)-3-(2-methyl-7-(1-methyleyelopropyl)thiazolo[5,4-b]pyridin-6-yl)urea] as the compound, how does the pIC50 read?
Its pIC50 is 7.00 to 9.00.

With `Cc1nc2c(C3(C)CC3)c(NC(=O)Nc3cnc(-n4nccn4)c(C(F)(F)F)c3)cnc2s1` [Compound 177, 1-(6-(2H-1,2,3-triazol-2-yl)-5-(trifluoromethyl)pyridin-3-yl)-3-(2-methyl-7-(1-methyleyelopropyl)thiazolo[5,4-b]pyridin-6-yl)urea] as the compound, how does the pIC50 read?
Its pIC50 is 7.00 to 9.00.

With `CCc1nc2c(C(C)OC)c(NC(=O)Nc3cnc(-n4nccn4)c(C(F)(F)F)c3)cnc2s1` (centres unmarked) [Compound 232b, 1-(6-(2H-1,2,3-Triazol-2-yl)-5-(trifluoromethyl)pyridin-3-yl)-3-(2-ethyl-7-(1-methoxyethyl)thiazolo[5,4-b]pyridin-6-yl)urea] as the compound, how does the pIC50 read?
The pIC50 was 7.00 to 9.00.

With `COC(C)c1c(NC(=O)Nc2cncc(C#N)c2)cnc2sc(C)nc12` (single isomer, unassigned) [Compound 129b, 1-(5-Cyanopyridin-3-yl)-3-(7-(1-methoxyethyl)-2-methylthiazolo[5,4-b]pyridin-6-yl)urea] as the compound, how does the pIC50 read?
The pIC50 was 7.00 to 9.00.

With `COC(c1ccccc1)c1c(NC(=O)Nc2ccc(-n3nccn3)c(Cl)c2)cnc2sc(C)nc12` (centres unmarked) [Compound 82b, 1-(3-Chloro-4-(2H-1,2,3-triazol-2-yl)phenyl)-3-(7-(methoxy(phenyl)methyl)-2-methylthiazolo[5,4-b]pyridin-6-yl)urea] as the compound, how does the pIC50 read?
The pIC50 was 6.30 to 7.00.

With `Cc1nc2c(C(C3CC3)N(C)C)c(NC(=O)Nc3cnc(-n4nccn4)c(Cl)c3)cnc2s1` (centres unmarked) [Compound 228b, 1-(5-Chloro-6-(2H-1,2,3-triazol-2-yl)pyridin-3-yl)-3-(7-(cyclopropyl(dimethylamino)methyl)-2-methylthiazolo[5,4-b]pyridin-6-yl)urea] as the compound, how does the pIC50 read?
Its pIC50 is 7.00 to 9.00.

How did the pIC50 turn out when `COC(C)c1c(NC(=O)Nc2cc(C(F)(F)F)cn(C)c2=O)cnc2sc(C)nc12` (single isomer, unassigned) [Compound 133b, 1-(7-(1-methoxyethyl)-2-methylthiazolo[5,4-b]pyridin-6-yl)-3-(1-methyl-2-oxo-5-(trifluoromethyl)-1,2-dihydropyridin-3-yl)urea] was run?
The pIC50 was 5.82 to 6.30.

`COc1ncc(Cl)cc1NC(=O)Nc1cnc2sc(C)nc2c1C(C)OC` (single isomer, unassigned) [Compound 120b, 1-(5-chloro-2-methoxypyridin-3-yl)-3-(7-(1-methoxyethyl)-2-methylthiazolo[5,4-b]pyridin-6-yl)urea] was tested. Which pIC50 did it give?
Its pIC50 is 7.00 to 9.00.

`Cc1nc2c(C(C)C)c(NC(=O)Nc3ccc(-n4nccn4)c(Cl)c3)cnc2s1` [Compound 188, 1-(3-Chloro-4-(2H-1,2,3-triazol-2-yl)phenyl)-3-(7-isopropyl-2-methylthiazolo[5,4-b]pyridin-6-yl)urea] was tested. Which pIC50 did it give?
Its pIC50 is 6.30 to 7.00.

With `COc1cc(-n2ccnn2)c(Cl)cc1NC(=O)Nc1cnc2sc(C)nc2c1C(C)OC` (single isomer, unassigned) [Compound 132b, 1-(5-Chloro-2-methoxy-4-(1H-1,2,3-triazol-1-yl)phenyl)-3-(7-(1-methoxyethyl)-2-methylthiazolo[5,4-b]pyridin-6-yl)urea] as the compound, how does the pIC50 read?
Its pIC50 is 7.00 to 9.00.

With `COc1nc(-n2nccn2)c(C(F)(F)F)cc1NC(=O)Nc1cnc2sc(C)nc2c1C(C)OC` (centres unmarked) [Compound 88a, 1-(2-Methoxy-6-(2H-1,2,3-triazol-2-yl)-5-(trifluoromethyl)pyridin-3-yl)-3-(7-(1-methoxyethyl)-2-methylthiazolo[5,4-b]pyridin-6-yl)urea] as the compound, how does the pIC50 read?
The pIC50 was 7.00 to 9.00.

How did the pIC50 turn out when `COC(C)c1c(NC(=O)Nc2ccc(-c3ncccn3)c(Cl)c2)cnc2sc(C)nc12` (single isomer, unassigned) [Compound 202, (S) or (R)-1-(3-Chloro-4-(pyrimidin-2-yl)phenyl)-3-(7-(1-methoxyethyl)-2-methylthiazolo[5,4-b]pyridin-6-yl)urea] was run?
The pIC50 was 7.00 to 9.00.
